PMC9059125 (Journal of Medicinal Chemistry, 2022)
Read-outs that look alike come from different tables or passages of the source. *1 amine or outer side, *2 acyl side, *3 side chain or, on linkers, in order; H or OH if unused. Where a SMILES comes first, the peptide text is derived from it. Bridges are numbered along the chain shown (N, C = ends). X1 = O=C(CCC[*:2])[*:1]

What was measured:
[1] = simulated gi fluid, pH 6.8
hOTR = target: T1, hOTR (Homo sapiens, UniProt P30559); experiment: cell-based
T1 construct: expressed in transfected cells; host or cells: COS-1 cells (ATCC), transient transfection with FuGENE HD
T1 sequence (P30559 1-389): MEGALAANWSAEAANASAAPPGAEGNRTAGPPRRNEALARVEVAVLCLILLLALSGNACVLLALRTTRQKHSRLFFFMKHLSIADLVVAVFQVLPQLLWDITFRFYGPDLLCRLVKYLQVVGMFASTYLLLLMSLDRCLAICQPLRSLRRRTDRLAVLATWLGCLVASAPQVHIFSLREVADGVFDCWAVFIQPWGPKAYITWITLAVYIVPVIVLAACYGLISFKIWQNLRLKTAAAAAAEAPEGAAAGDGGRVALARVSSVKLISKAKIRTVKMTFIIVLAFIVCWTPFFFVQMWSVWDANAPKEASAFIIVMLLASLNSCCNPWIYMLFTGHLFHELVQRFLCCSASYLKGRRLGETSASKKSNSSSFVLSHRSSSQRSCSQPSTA

[2] = simulated gi fluid; cited from earlier work
[3] = simulated gi fluid, pH 1.2
[4] = target: T2, human oxytocin receptor (OTR) (Homo sapiens, UniProt P30559); experiment: NIMH PDSP FLIPR-TETRA Ca2+-mobilization assay; assay type: cell-based
T2 construct: NIMH PDSP (data provider)
T2 sequence (P30559 1-389): T1 sequence (P30559 1-389)

in vitro = settings: pig, simulated gi fluid, pH 6.8
[5] = target: T2, human oxytocin receptor (OTR); settings: cited from earlier work

CC[C@H](C)[C@@H]1NC(=O)[C@H](Cc2ccc(O)cc2)NC(=O)[C@@H]2CSSC[C@@H]3NC(=O)[C@H](C(C)C)NC(=O)[C@@H]4CCCN4C(=O)[C@H](Cc4c[nH]c5ccccc45)NC(=O)[C@H](CO)NC(=O)[C@@H]4CSSC[C@H](NC(=O)[C@H]([C@@H](C)O)NC(=O)[C@H](CCC(=O)O)NC(=O)CNC(=O)[C@H](CSSC[C@H](NC(=O)[C@H](CC(N)=O)NC(=O)[C@H](CCC(N)=O)NC1=O)C(=O)N[C@@H]([C@@H](C)O)C(=O)N4)NC(=O)[C@H](C(C)C)NC(=O)[C@@H]1CCCN1C(=O)[C@H](CC(C)C)NC(=O)CNC(=O)[C@H](CC(N)=O)NC(=O)[C@H](CCCNC(=N)N)NC(=O)[C@H]([C@@H](C)O)NC3=O)C(=O)N[C@@H](C(C)C)C(=O)NCC(=O)NCC(=O)N[C@@H]([C@@H](C)O)C(=O)N2 [KB1(OT^[2-5])]
t1/2 SIF [1]: >24 h | EC50 (hOTR): > 10000 nM

NC(=O)CC[C@@H]1NC(=O)[C@H](Cc2ccccc2)NC(=O)[C@H](Cc2ccc(O)cc2)NC(=O)CCSSC[C@@H](C(=O)N2CCC[C@H]2C(=O)N[C@H](CCCN=C(N)N)C(=O)NCC(N)=O)NC(=O)[C@H](CC(N)=O)NC1=O [Desmopressin]
reported t1/2 in SIF [2]: 0.5 h

CC(C)C[C@H](NC(=O)[C@@H]1CSSC[C@@H]2NC(=O)[C@H](CC(C)C)NC(=O)[C@H](CCC(=O)O)NC(=O)[C@@H](NC(=O)[C@H](CCC(=O)O)NC(=O)[C@H](CC(=O)O)NC(=O)[C@@H](N)CC(N)=O)CSSC[C@H](NC(=O)[C@H](C)NC(=O)[C@H](C(C)C)NC(=O)[C@H](CC(N)=O)NC(=O)[C@H](C(C)C)NC2=O)C(=O)N[C@@H]([C@@H](C)O)C(=O)NCC(=O)N1)C(=O)O [Plecanatide, reference compound]
t1/2 SIF ([1]; pig): 0.083 ± 0.017 h | t1/2 SGF [3]: >24 h

CC[C@H](C)[C@@H]1NC(=O)[C@H](Cc2ccc(O)cc2)NC(=O)[C@@H]2CSSC[C@@H]3NC(=O)[C@H]([C@@H](C)CC)NC(=O)[C@@H]4CCCN4C(=O)[C@H](Cc4c[nH]c5ccccc45)NC(=O)[C@H](CO)NC(=O)[C@@H]4CSSC[C@H](NC(=O)[C@H]([C@@H](C)O)NC(=O)[C@H](CCC(=O)O)NC(=O)CNC(=O)[C@H](CSSC[C@H](NC(=O)[C@H](CC(N)=O)NC(=O)[C@H]([C@@H](C)O)NC1=O)C(=O)N[C@@H]([C@@H](C)O)C(=O)N4)NC(=O)[C@H](C(C)C)NC(=O)[C@@H]1CCCN1C(=O)[C@H](CC(C)C)NC(=O)CNC(=O)[C@H](CC(N)=O)NC(=O)[C@H](CCCNC(=N)N)NC(=O)[C@H](CCCCN)NC3=O)C(=O)N[C@@H]([C@@H](C)O)C(=O)N[C@@H](CC(C)C)C(=O)NCC(=O)N[C@@H]([C@@H](C)O)C(=O)N2 [KB7(T^4G^7OT^[2-5])]
t1/2 SIF [1]: >24 h | EC50 (hOTR): > 10000 nM

CC[C@H](C)[C@@H]1NC(=O)[C@H](Cc2ccc(O)cc2)NC(=O)[C@@H](N)CSSC[C@@H](C(=O)N2CCC[C@H]2C(=O)N[C@@H](CC(C)C)C(=O)NNC(N)=O)NC(=O)[C@H](CC(N)=O)NC(=O)[C@H](CCC(N)=O)NC1=O [G^9(aza)OT]
t1/2 SIF [1]: <0.05 h | EC50 [4]: 2.24 ± 0.63 nM | Emax ± SEM OTR [4]: 111 ± 6

CC[C@H](C)[C@@H]1NC(=O)[C@H](Cc2ccc(O)cc2)NC(=O)[C@@H]2CSSC[C@@H]3NC(=O)[C@H](C(C)C)NC(=O)[C@@H]4CCCN4C(=O)[C@H](Cc4c[nH]c5ccccc45)NC(=O)[C@H](CO)NC(=O)[C@@H]4CSSC[C@H](NC(=O)[C@H]([C@@H](C)O)NC(=O)[C@H](CCC(=O)O)NC(=O)CNC(=O)[C@H](CSSC[C@H](NC(=O)[C@H](CC(N)=O)NC(=O)[C@H]([C@@H](C)O)NC1=O)C(=O)N[C@@H]([C@@H](C)O)C(=O)N4)NC(=O)[C@H](C(C)C)NC(=O)[C@@H]1CCCN1C(=O)[C@H](CC(C)C)NC(=O)CNC(=O)[C@H](CC(N)=O)NC(=O)[C@H](CCCNC(=N)N)NC(=O)[C@H]([C@@H](C)O)NC3=O)C(=O)N[C@@H](C(C)C)C(=O)NCC(=O)NCC(=O)N[C@@H]([C@@H](C)O)C(=O)N2 [KB1(T^4G^7OT^[2-5])]
t1/2 SIF [1]: >24 h | EC50 (hOTR): > 10000 nM

CC[C@H](C)[C@@H]1NC(=O)[C@H](Cc2ccc(OC)cc2)NC(=O)CCCSC[C@@H](C(=O)N2CCC[C@H]2C(=O)N[C@@H](CC(C)C)C(=O)NCC(N)=O)NC(=O)[C@H](CC(N)=O)NC(=O)[C@H](CCC(N)=O)NC1=O [Carbetocin, reference compound] (Y(Me)IQNCPLG-NH2; linker N-5 via X1)
t1/2 SIF ([1]; pig): 0.217 ± 0.017 h | t1/2 SGF [3]: >24 h

CC[C@H](C)[C@@H]1NC(=O)[C@H](Cc2ccc(O)cc2)NC(=O)[C@@H](N)CSSC[C@@H](C(=O)N2CCC[C@H]2C(=O)N[C@@H](CC(C)C)C(=O)NCC(N)=O)NC(=O)[C@H](CC(N)=O)NC(=O)[C@H](CCC(N)=O)NC1=O [Oxytocin, reference compound]
t1/2 SIF ([1]; pig): 0.13 ± 0.017 h | t1/2 SGF [3]: >24 h

NC(=O)CC[C@@H]1NC(=O)[C@H](Cc2ccccc2)NC(=O)[C@H](Cc2ccc(O)cc2)NC(=O)[C@@H](N)CSSC[C@@H](C(=O)N2CCC[C@H]2C(=O)N[C@@H](CCCN=C(N)N)C(=O)NCC(N)=O)NC(=O)[C@H](CC(N)=O)NC1=O [Vasopressin, reference compound]
t1/2 SIF [1]: <0.05 h | t1/2 SGF [3]: >24 h

CC[C@H](C)[C@@H]1NC(=O)[C@H](Cc2ccc(O)cc2)NC(=O)[C@@H](N)CSSC[C@@H](C(=O)N2CCC[C@H]2C(=O)N[C@H](CC(=O)NCC(N)=O)CC(C)C)NC(=O)[C@H](CC(N)=O)NC(=O)[C@H](CCC(N)=O)NC1=O [(β^3-homo)L^8OT]
t1/2 SIF ([1]; pig): 3.6 ± 0.1 h

CC[C@H](C)[C@@H]1NC(=O)[C@@H]2CSSC[C@H](NC(=O)[C@H](CCCNC(=N)N)NC(=O)[C@@H]3CSSC[C@H](NC1=O)C(=O)N[C@@H]([C@@H](C)O)C(=O)N[C@@H](CCCNC(=N)N)C(=O)NCC(=O)N[C@@H](Cc1ccccc1)C(=O)N3)C(=O)N[C@@H](CC(C)C)C(=O)N[C@H]1CSSC[C@H](NC(=O)[C@H](C(C)C)NC(=O)CNC(=O)[C@H](CCCNC(=N)N)NC(=O)[C@H](CCCNC(=N)N)NC1=O)C(=O)N[C@@H](CCCNC(=N)N)C(=O)N2 [RTD-1] (HELM PEPTIDE1{G.F.C.R.C.L.C.R.R.G.V.C.R.C.I.C.T.R}$PEPTIDE1,PEPTIDE1,3:R3-16:R3|PEPTIDE1,PEPTIDE1,5:R3-14:R3|PEPTIDE1,PEPTIDE1,7:R3-12:R3|PEPTIDE1,PEPTIDE1,1:R1-18:R2$$$V2.0)
t1/2 SIF [1]: 0.05 ± 0.017 h | t1/2 SGF [3]: 2.2 ± 0.3 h | half-life (in vitro): < 3 min

CC[C@H](C)[C@@H]1NC(=O)[C@H](Cc2ccc(O)cc2)NC(=O)[C@@H](N)CSSC[C@@H](C(=O)N2CCC[C@H]2C(=O)N[C@@H](CC(C)C)C(=O)N(C)CC(N)=O)NC(=O)[C@H](CC(N)=O)NC(=O)[C@H](CCC(N)=O)NC1=O [(Nα-Me)G^9OT]
reduced potency compared to native OT [5]: ~10 fold | t1/2 SIF ([1]; pig): 2.9 ± 0.1 h

CC(C)C[C@@H]1NC(=O)[C@H](CCC(=O)O)NC(=O)[C@@H](NC(=O)[C@H](CCC(=O)O)NC(=O)[C@H](CC(=O)O)NC(=O)[C@H](N)CC(N)=O)CSSC[C@@H]2NC(=O)[C@H](C)NC(=O)[C@H](C(C)C)NC(=O)[C@H](CC(N)=O)NC(=O)[C@H](C(C)C)NC(=O)[C@H](CSSC[C@@H](C(=O)N[C@H](CC(C)C)C(=O)O)NC(=O)CNC(=O)[C@H]([C@@H](C)O)NC2=O)NC1=O [Dolcanatide, reference compound]
t1/2 SIF [1]: >24 h | t1/2 SGF [3]: >24 h

C[C@@H]1NC(=O)[C@@H]2CCCN2C(=O)[C@H](CC(N)=O)NC(=O)[C@@H]2CSSC[C@H](N)C(=O)N[C@H]3CSSC[C@H](NC1=O)C(=O)N[C@@H]([C@@H](C)O)C(=O)NCC(=O)N[C@H](C(=O)N[C@@H](Cc1ccc(O)cc1)C(=O)O)CSSC[C@H](NC(=O)[C@H](Cc1ccc(O)cc1)NC(=O)[C@H](CCC(=O)O)NC3=O)C(=O)N2 [Linaclotide] (HELM PEPTIDE1{C.C.E.Y.C.C.N.P.A.C.T.G.C.Y}$PEPTIDE1,PEPTIDE1,1:R3-6:R3|PEPTIDE1,PEPTIDE1,2:R3-10:R3|PEPTIDE1,PEPTIDE1,5:R3-13:R3$$$V2.0)
reported t1/2 in SIF [2]: 0.267 h | t1/2 SIF ([1]; pig): 0.9 ± 0.05 h | t1/2 SGF [3]: >24 h

CC[C@H](C)[C@@H]1NC(=O)[C@H](Cc2ccc(O)cc2)NC(=O)[C@@H](N)CSSC[C@@H](C(=O)N2CCC[C@H]2C(=O)N[C@@](C)(CC(C)C)C(=O)NCC(N)=O)NC(=O)[C@H](CC(N)=O)NC(=O)[C@H](CCC(N)=O)NC1=O [(Cα-Me)L^8OT]
t1/2 SIF ([1]; pig): 4.4 ± 0.3 h | EC50 [4]: 3.8 ± 2.7 nM | Emax ± SEM OTR [4]: 105 ± 11 | bioactivity at OTR compared to native OT [4]: equipotent to native OT

CC(C)C[C@@H]1NC(=O)CNC(=O)[C@H](CC(N)=O)NC(=O)[C@H](CCCNC(=N)N)NC(=O)[C@H]([C@@H](C)O)NC(=O)[C@@H]2CSSC[C@@H]3NC(=O)[C@H]([C@@H](C)O)NC(=O)CNC(=O)CNC(=O)[C@H](C(C)C)NC(=O)[C@@H]4CSSC[C@H](NC(=O)[C@H]([C@@H](C)O)NC(=O)[C@H](CSSC[C@H](NC(=O)[C@H](C(C)C)NC(=O)[C@@H]5CCCN5C1=O)C(=O)NCC(=O)N[C@@H](CCC(=O)O)C(=O)N[C@@H]([C@@H](C)O)C(=O)N4)NC(=O)CNC(=O)[C@@H]1CCCN1C(=O)[C@H]([C@@H](C)O)NC(=O)[C@H](CC(N)=O)NC3=O)C(=O)N[C@@H](CO)C(=O)N[C@@H](Cc1c[nH]c3ccccc13)C(=O)N1CCC[C@H]1C(=O)N[C@@H](C(C)C)C(=O)N2 [Kalata B1, reference compound]
t1/2 SIF [1]: >24 h | t1/2 SGF [3]: >24 h
